Publication PMC12677653, “Inhibition of Tumor Lipogenesis and Growth by Peptide‐Based Targeting of SREBP Activation” (Advanced Science, 2025)

Columns and labels:
[1] = system: Insig1 S207/Insig2 S151 phosphorylation; test: Immunoblot of Insig1 S207/Insig2 S151 phosphorylation, Huh7; format: cell-based, human; conditions: Huh7 cells, peptide 7.5 or 15 µM 1 h before IGF1 100 ng/mL
Protocol: Figure 1 The Insig1/2 loop 1 peptide binds to S90‐phosphorylated PCK1 and blocks PCK1‐mediated SREBP activation and tumor cell proliferation. Immunoblotting analyses were performed using the indicated antibodies; representative results from three independent experiments are shown (IP, immunoprecipitation; WB, western blot). a) Huh7 cells expressing various Insig1 (top) or Insig2 (bottom) truncation mutants were treated with or without IGF1 (100 ng mL^−1) for 1 h. b,c) Biolayer interferometry assays (Sartorius Octet) were employed to measure the binding affinity of Insig1/2 loop 1 peptide to GST‐PCK1 or GST‐PCK1 pS90 proteins. […] Statistical significance was determined by one‐way analysis of variance (ANOVA). g) Following pretreatment with Insig1/2 loop 1 peptide (15 µM) and IGF1 stimulation (100 ng mL^−1, 8 h), Huh7 cells were subjected to immunofluorescence analysis (scale bar: 10 µm). h) Quantitative PCR analysis of SREBP1 target gene GPAM in Huh7 cells pretreated with Insig1/2 loop 1 peptide (15 µM) and stimulated with IGF1 (100 ng mL^−1) for 10 h. […] Statistical significance was determined by one‐way analysis of variance (ANOVA). i) Quantitative PCR analysis of SREBP1 target gene FASN in Huh7 cells pretreated with Insig1/2 loop 1 peptide (15 µM) and stimulated with IGF1 (100 ng mL^−1) for 10 h. […]

[2] = molecular target: T1, binding of PCK1 to Insig1 (Homo sapiens, UniProt P35558); test: Immunoprecipitation of IGF1-induced PCK1-Insig1 binding, Hep3B; format: cell-based; set-up: expressed in transfected cells; conditions: Flag-PCK1-expressing Hep3B cells, peptide 15 μM 1 h before IGF1 100 ng/mL
T1 sequence (P35558 1-622): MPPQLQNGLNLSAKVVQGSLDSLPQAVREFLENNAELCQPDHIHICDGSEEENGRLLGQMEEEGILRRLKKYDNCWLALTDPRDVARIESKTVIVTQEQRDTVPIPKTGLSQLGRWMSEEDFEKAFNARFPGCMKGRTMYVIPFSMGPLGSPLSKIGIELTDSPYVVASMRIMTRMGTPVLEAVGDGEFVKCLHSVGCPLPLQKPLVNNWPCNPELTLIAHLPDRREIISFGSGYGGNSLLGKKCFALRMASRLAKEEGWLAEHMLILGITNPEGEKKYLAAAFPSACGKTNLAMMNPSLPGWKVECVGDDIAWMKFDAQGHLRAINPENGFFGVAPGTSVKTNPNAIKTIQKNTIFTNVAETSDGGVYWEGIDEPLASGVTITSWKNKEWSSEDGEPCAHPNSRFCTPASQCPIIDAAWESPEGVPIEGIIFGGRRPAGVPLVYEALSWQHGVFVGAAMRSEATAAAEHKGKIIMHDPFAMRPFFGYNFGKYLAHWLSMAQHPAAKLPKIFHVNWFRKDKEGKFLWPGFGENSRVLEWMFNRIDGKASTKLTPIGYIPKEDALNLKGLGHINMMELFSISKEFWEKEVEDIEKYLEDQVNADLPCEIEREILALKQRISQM
Protocol: Cellular proteins were extracted using ice‐cold lysis buffer [50 mM Tris‐HCl (pH 7.5), 150 mM NaCl, 0.1% SDS, 1% Triton X‐100, 1 mM DTT, 0.5 mM EDTA] supplemented with protease inhibitor cocktail (Roche) and phosphatase inhibitors (Bimake). Following lysis, cell extracts were centrifuged at 13400 × g for 15 min at 4 °C to remove cellular debris. The clarified supernatants were then incubated with primary antibodies overnight at 4 °C with gentle rotation. For Flag‐tagged protein immunoprecipitation, Flag M2 magnetic beads (Sigma) were added to the lysate‐antibody mixture and incubated for an additional 4 h at 4 °C. The immunocomplexes were washed three times with lysis buffer under stringent conditions (5 min per wash with rotation). Finally, the precipitated proteins were eluted and analyzed by immunoblotting as previously described.^[ [35] ^]
d) Flag-PCK1-expressing Hep3B cells were pre-treated with Insig1/2 loop 1 peptide (15 μM) for 1 h before IGF1 (100 ng ml⁻¹) stimulation.

**Q.** “RKKRRQRRRLYPCIDSHLGEPHKFKRE [Insig1/2 loop 1 peptide]” was tested. Which “Insig1 S207/Insig2 S151 phosphorylation” value [1] did it give?
**A.** Its value is “markedly inhibited”.

**Q.** What about the “IGF1-induced binding of PCK1 to Insig1” value [2] of the same sequence?
**A.** Its value is “markedly inhibited”.
